Assay results reported in patent publication US4220790A, “1-N,N-Dimethylcarbamyl-3-tert.butyl-5-methylthio-1,2,4-triazole” (priority 1977, dated 1980).

Assays:
[1] = tested on: Southern corn rootworm; assay: Corn rootworm control under corn growing conditions, aging in soil, root damage rating; assay type: in vivo, Diabrotica undecimpunctata howardi; set-up: AVERAGE ROOT DAMAGE RATINGS, Test No. 1 / AVERAGE ROOT DAMAGE RATINGS, Test No. 2 / AVERAGE ROOT DAMAGE RATINGS, Test No. 3 / AVERAGE ROOT DAMAGE RATINGS, Test No. 4 / AVERAGE ROOT DAMAGE RATINGS, Test No. 5: scale not given here; settings: for AVERAGE ROOT DAMAGE RATINGS, Test No. 3 / AVERAGE ROOT DAMAGE RATINGS, Test No. 4 / AVERAGE ROOT DAMAGE RATINGS, Test No. 5: 1.0 lb/A; for AVERAGE ROOT DAMAGE RATINGS, Test No. 3 / AVERAGE ROOT DAMAGE RATINGS, Test No. 1: aged 11 days; for AVERAGE ROOT DAMAGE RATINGS, Test No. 4: aged 26 days; for AVERAGE ROOT DAMAGE RATINGS, Test No. 5 / AVERAGE ROOT DAMAGE RATINGS, Test No. 2: aged 41 days; for AVERAGE ROOT DAMAGE RATINGS, Test No. 1 / AVERAGE ROOT DAMAGE RATINGS, Test No. 2: 10.0 lb/A
Description: During this period of time in the soil the insecticide concentration diminishes as a result of leaching and the action of oxygen and soil microbes, so that it is difficult to maintain sufficient concentration to kill the rootworms. […] Less than a half dozen compounds enjoy substantial commercial success for this purpose. […] Carbofuran was therefore selected as a standard for comparison of his compound and closely related compounds for corn rootworm control under corn growing conditions. The organism used in these tests were Diabrotica undecimpunctata howardi, the Southern corn rootworm. The following method was employed in the tests:
Two parallel rows of corn (Pioneer 385 g×526 g untreated) were planted 2" apart down the center of Mirro No. C8509 aluminum bread pans, 5 kernels corn per row in greenhouse potting soil. The dimensions of the bread pans are 95/8"×51/2"×23/4" and lack holes in the bottoms of the pans. Each kernel of corn at time of germination was infested with 3-day-old SCR eggs, approximately 50 eggs per kernel. Test pans were treated by drenching 200 mls of test solution (Triton X-100, water and the test chemical dissolved in 5 mls acetone) on the surface of the soil in the bread pan. The schedule for treating, planting corn, and infesting with corn rootworm eggs were varied to test aging characteristics of the compounds in soil. The test pans were watered daily and held at 80° F. and 50% R.H. until rated. Root damage rating was done by the following rating sequence:
Rating % Root Damage Rating
The chemical compound which were tested were those of the structural formula [drawing 5] in which R represents tert.butyl, methyl, ethyl, propyl, butyl and isobutyl.
The comparison standard was carbofuran (2,3-dihydro-2,2-dimethyl-7-benzofuranyl methylcarbamate).
The tests were conducted during the months of July and August according to the time schedule as set forth below: […]

[2] = tested on: Southern Corn Rootworm; assay: Southern corn rootworm (SCR) test in cups with corn; assay type: in vivo; settings: for Corn Rootworm (SCR) rating: nine days after treatment; for toxicity to corn rootworm (in words): comparative tests, nineteen compounds
Procedure: Method for Southern Corn Rootworm (SCR)
Three 5 oz. paper cups planted each with one kernel of DeKalb XL-361 corn are treated two days after planting with 10 ml of a 125 ppm solution of the candidate compound. Compounds with high efficacy are tested at lower concentrations. The experiment is a 4×5 factorial in a randomized complete block design with three replications. The tests are evaluated nine days after treatment. The roots are inspected under a dissecting microscope and rated as follows:
SCR Rating % Root Feeding Damage
So as to obtain more meaningful results, all tests are performed at the same time of day, whenever possible, usually in the forenoon. Temperature,illumination and humidity are the same in all tests. Atmospheric pressure is not controlled.
(§1) Results obtained with the novel insecticide of this invention at various concentrations of active chemical are tabulated below. The ratings given are for averages of three or more replicates. The oral lethal dose for 50 percent kill of laboratory rats is also recorded in the table. In conducting the toxicity tests on rats, 0.01 g of active chemical per ml in corn oil is employed as an additive to the diet of the animals.

[3] = tested on: insects of the orders Coleoptera and Orthoptera; assay: Effectiveness against insects of the orders Coleoptera and Orthoptera; assay type: in vivo
[4] = tested on: two-spotted mites; assay: Spray test on two-spotted mites (TSM); set-up: species or system two-spotted mite; settings: in vivo
Procedure: Method for Mites, Aphids, Bean Beetles and Army Worms
Three 5 oz. paper cups containing Henderson dwarf lima bean plants and one 5 oz. paper cup containing Orange Gem nasturtiums, all growing in vermiculite, are placed on a turntable and sprayed to thorough wetness with 25 ml of a solution of the candidate chemical at the appropriate concentration. Nasturtiums were already infested with 50-100 bean aphids (BA). A bean plant in one paper cup was already infested with 50-100 two-spotted mites (TSM). Leaves from the two remaining bean plants are removed following spraying and placed in disposable petri dishes with 5 southern armyworm (SA) larvae in one petri dish, and 5 Mexican bean beetle (MBB) larvae in the other petri dish. The rating is done approximately 48 hours after spraying as follows:
as §1

With `CSc1nc(C)nn1C(=O)N(C)C` [R' = methyl] the “AVERAGE ROOT DAMAGE RATINGS, Test No. 3” value [1] was 0 (100), the “AVERAGE ROOT DAMAGE RATINGS, Test No. 4” value [1] was 0.1 and the “AVERAGE ROOT DAMAGE RATINGS, Test No. 5” value [1] was 0.5. For the same molecule, the “AVERAGE ROOT DAMAGE RATINGS, Test No. 1” value [1] was 2.7 and the “AVERAGE ROOT DAMAGE RATINGS, Test No. 2” value [1] was 0 (100).
For `CCCc1nc(SC)n(C(=O)N(C)C)n1` [R' = propyl], the “AVERAGE ROOT DAMAGE RATINGS, Test No. 3” value [1] was 0.3, the “AVERAGE ROOT DAMAGE RATINGS, Test No. 4” value [1] was 1.8 and the “AVERAGE ROOT DAMAGE RATINGS, Test No. 5” value [1] was 2.3. The “AVERAGE ROOT DAMAGE RATINGS, Test No. 1” value [1] was 4.4 and the “AVERAGE ROOT DAMAGE RATINGS, Test No. 2” value [1] was 3.1.
With `CCc1nc(SC)n(C(=O)N(C)C)n1` [R' = ethyl] the “AVERAGE ROOT DAMAGE RATINGS, Test No. 3” value [1] was 0 (100), the “AVERAGE ROOT DAMAGE RATINGS, Test No. 4” value [1] was 1.1 and the “AVERAGE ROOT DAMAGE RATINGS, Test No. 5” value [1] was 1.0. The “AVERAGE ROOT DAMAGE RATINGS, Test No. 1” value [1] was 4.3 and the “AVERAGE ROOT DAMAGE RATINGS, Test No. 2” value [1] was 3.0.
`CCCCc1nc(SC)n(C(=O)N(C)C)n1` [R' = butyl] was tested, and the “AVERAGE ROOT DAMAGE RATINGS, Test No. 3” value [1] was 0 (100), the “AVERAGE ROOT DAMAGE RATINGS, Test No. 4” value [1] was 0.4 and the “AVERAGE ROOT DAMAGE RATINGS, Test No. 5” value [1] was 0.5. The “AVERAGE ROOT DAMAGE RATINGS, Test No. 1” value [1] was 4.4 and the “AVERAGE ROOT DAMAGE RATINGS, Test No. 2” value [1] was 3.6.
`CSc1nc(C(C)(C)C)nn1C(=O)N(C)C` [1-N,N-Dimethylcarbamyl-3-tert.butyl-5-methylthio-1,2,4-triazole] was tested, and the “Corn Rootworm (SCR) rating” value ([2]; 3 ppm, listed as U.S.Ser.No. 842,760) was 3.0, the “Corn Rootworm (SCR) rating” value ([2]; 6 ppm) was 3.3 and the “toxicity to corn rootworm (in words)” value [2] was “displayed toxicity to corn rootworm”. The “AVERAGE ROOT DAMAGE RATINGS, Test No. 3” value [1] was 4.5, the “AVERAGE ROOT DAMAGE RATINGS, Test No. 4” value [1] was 4.1 and the “AVERAGE ROOT DAMAGE RATINGS, Test No. 5” value [1] was 4.6. The “AVERAGE ROOT DAMAGE RATINGS, Test No. 1” value [1] was 5.0, the “AVERAGE ROOT DAMAGE RATINGS, Test No. 2” value [1] was 4.3 and the “duration of efficacy against corn rootworm (in words)” value ([1]; compared with carbofuran) was “efficacy of long duration, comparable to the commercial insecticide”. For the same molecule, the “insecticidal effectiveness (in words)” value [3] was “effective against insects of the orders Coleoptera and Orthoptera” and the “miticidal activity (in words)” value [4] was “absence of miticidal activity”.
For `CCc1nc(SC)n(C(=O)N(C)C)n1` [Example XVI], the “Corn Rootworm (SCR) rating” value ([2]; 3 ppm) was 0.5, the “Corn Rootworm (SCR) rating” value ([2]; 12 ppm) was 2.5 and the “Corn Rootworm (SCR) rating” value ([2]; 25 ppm) was 3.5. For the same molecule, the “Corn Rootworm (SCR) rating” value ([2]; 100 ppm) was 3.7, the “total kill of corn rootworm (in words)” value ([2]; any concentration) was “failed to give a total kill at any concentration” and the “toxicity to corn rootworm (in words)” value [2] was “displayed toxicity to corn rootworm”.
In the case of `CNC(=O)Oc1cccc2c1OC(C)(C)C2` [Carbofuran, 2,3-dihydro-2,2-dimethyl-7-benzofuranyl methylcarbamate], the “AVERAGE ROOT DAMAGE RATINGS, Test No. 3” value [1] is reported as 4.3, the “AVERAGE ROOT DAMAGE RATINGS, Test No. 4” value [1] is reported as 3.8 and the “AVERAGE ROOT DAMAGE RATINGS, Test No. 5” value [1] is reported as 4.7. The “AVERAGE ROOT DAMAGE RATINGS, Test No. 1” value [1] was 4.8 and the “AVERAGE ROOT DAMAGE RATINGS, Test No. 2” value [1] was 4.1.
In the case of `CSc1nc(CC(C)C)nn1C(=O)N(C)C` [R' = isobutyl], the “AVERAGE ROOT DAMAGE RATINGS, Test No. 3” value [1] is reported as 0.6, the “AVERAGE ROOT DAMAGE RATINGS, Test No. 4” value [1] is reported as 0.3 and the “AVERAGE ROOT DAMAGE RATINGS, Test No. 5” value [1] is reported as 2.3. The “AVERAGE ROOT DAMAGE RATINGS, Test No. 1” value [1] was 4.8 and the “AVERAGE ROOT DAMAGE RATINGS, Test No. 2” value [1] was 3.6.
